We go through 5 compounds from patent US11298363B2, “Triazolobenzazepines as vasopressin V1a receptor antagonists” (RICHTER GEDEON NYRT., priority 2017, dated 2022).

The target of series [1] is T1, human vasopressin V1a receptor (Homo sapiens, UniProt P37288). As to the kind of experiment: Human vasopressin V1a receptor binding assay. Conditions: 1321N1 cell membranes, [3H]vasopressin; read-out: Ki (nM) on hV1a cell line. The procedure, abridged: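 Radioligand competition on membranes from cells expressing human V1a receptor; incubation 60 minutes at 27° C., non-specific binding with 1.2×10^−6 M unlabeled (Arg^8)-vasopressin, filtration separation. Ki by Cheng-Prusoff using Scatchard-derived KD, from at least two independent experiments.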
T1 sequence (P37288 whole entry): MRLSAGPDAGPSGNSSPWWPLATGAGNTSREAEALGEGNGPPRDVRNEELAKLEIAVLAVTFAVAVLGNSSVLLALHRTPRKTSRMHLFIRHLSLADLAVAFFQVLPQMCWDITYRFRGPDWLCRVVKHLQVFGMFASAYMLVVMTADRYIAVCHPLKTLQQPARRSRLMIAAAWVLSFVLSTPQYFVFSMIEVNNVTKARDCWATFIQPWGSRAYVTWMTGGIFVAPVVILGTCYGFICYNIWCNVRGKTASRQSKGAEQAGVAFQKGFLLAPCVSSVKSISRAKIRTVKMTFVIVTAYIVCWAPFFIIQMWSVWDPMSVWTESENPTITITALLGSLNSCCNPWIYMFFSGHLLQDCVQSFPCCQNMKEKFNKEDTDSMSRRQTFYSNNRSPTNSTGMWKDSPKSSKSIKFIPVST

Series [2] deals with Prenatally valproate-treated rats. In words: Prenatal valproate model of ASD, social memory recognition paradigm. The series is classed as in vivo, rat. Conditions: VPA rats; for social memory recognition active novelty contact time: mean ± S.E.M.; for social memory recognition % effect: VEH/VEH = 100%, VPA/VEH = 0%. The protocol: (§1) The Prenatal Valproate Model of Autism Spectrum Disorder (ASD) in Rats
(§2) The prenatal valproate model has excellent construct and face validity, thus it is a widely accepted animal model of ASD (Christensen et al, JAMA 2013, 309:1696-1703; Roullet et al, Neurotoxicol Teratol. 2013, 36:45-56). In this model, time-mated female Wistar rats (Harlan, UK) were treated with single-dose of valproic acid (VPA, i.p. 600 mg/kg) on 12.5 days of pregnancy. After birth and separation, the examined male offsprings were kept under standard laboratory conditions until completion of the studies. Four animals were kept together in standard cages at 22-24° C. external temperature and in 12-12 hour light-dark cycle (07.30 a.m.-07.30 p.m.). Food and water were available ad libitum. After once daily treatment with the test substance for 7 days and pretreatment on the day of measurement, the behaviour of the rats was assessed in the social preference test on the 59th or 60th postnatal day. The social preference test is a largely accepted test method for determining the autistic behaviour of rodents (Nadler et al, Genes Brain Behav 2004, 3:303-314; Bambini-Junior et al, Brain Res 2011, 1408:8-16). The test consists of two paradigms, the first is the social approach avoidance test. In this paradigm the social behaviour of examined animals can be determined with a special three-chamber apparatus. In the apparatus, the contact behaviour of the conspecific and empty separated area surrounded with a perforated wall can be examined and compared. […] One day later, on the 60th postnatal day, rats were tested in the social memory and recognition paradigm. In this, the contact behaviour with a new, previously unknown conspecific can be measured compared to a familiar conspecific.
Unexpectedly, the treatment reversed the value of VPA/VEH to the value of VEH/VEH treated animals.

Series [3] has as its target mouse vasopressin V1a receptor (Mus musculus, UniProt Q62463). In words: Mouse vasopressin V1a receptor binding assay. Conditions: 1321N1 cell membranes; read-out: Ki (nM) on mV1a cell line. The source says: Mouse Vasopressin V1a Receptor Binding Assay Cells and Radioligand
The immortalized 1321N1 cell line (B9/1321N1 clone) constitutively and stably expressing Mouse vasopressin V1a receptor vasopressin (8-L-Arginine), [Phenylalanyl-3,4,5-^3H(N)] labelled compound (Perkin Elmer Life and Analytical Sciences) as radioligand were used to determine the affinity of the prepared compounds.
Membrane-preparation: Membrane preparation of immortalized 1321N1 cells expressing the propagated mouse Vasopressin V1a receptor was made according to Jarvis's method (Jarvis et al., J Pharmacol Exp Ther […], 310:407-16). Cells were suspended in preparative buffer (50 mM Tris, 1 mM EDTA, 0.1 mM PMSF) and homogenized with glass homogenizing potter. To separate the raw membrane fraction two consecutive centrifugation procedures (40,000 g for 25 minutes at 4° C.) were executed, then the membrane was taken into the preparatory buffer during a final washing step, it was divided into aliquots which were stored at −80° C. until the time of measurement.
The protein content of the prepared membrane was determined according to Lowry's method using standard dilution line of bovine serum albumin (BSA) (Lowry et al., J Biol Chem 1951, 193:265-75).
To determine the final affinity value, the results of at least two independent experiments were taken into account.
Non-specific binding values were determined in the presence of an unlabeled 1.2×10^−6 M (Arg^8)-vasopressin. Samples were incubated in a total volume of 0.33 ml for 60 minutes at 27° C. Membrane-bound and free ligands were separated by filtration through a 0.5% polyethyleneimine-impregnated UniFilter® GF/B™ After drying the filter plates, 40 μl Microscint-20 (Packard) scintillation cocktail was added to the samples. Finally, radioactivity was measured using MicroBeta^2 Microplate Counter (Perkin Elmer).
The radioligand clamping ability of a substance is determined in at least two independent experiments. Specific radioligand binding can be defined as the difference between total and non-specific binding in the presence of a saturation amount of the unlabeled ligand or different concentrations of the substance to be tested. The results are given as a percentage of inhibition of the specific binding achieved in the presence of the substance to be tested.
The IC50 data (i.e. the concentration of the unknown substance which displaces 50% of specific bound radioligand) is calculated from the concentration-displacement curve using the sigmoid fitting mathematical method y=(A1−A2)/(1+(x/x0)p)+A2 with Origin 7.5. software (OriginLab Corporation, Northampton, USA). During fitting, the asymptotes are not fixed. The Ki values (inhibition constant) are given with Cheng-Prusoff equation Ki=IC50/[1+(L/KD)] wherein [L] is the radioligand concentration used in the experiment and [KD] is the affinity of the radioactively labelled ligand for the given receptor. The KD is determined beforehand using the Scatchard curve.

In series [4] the target is T1, human vasopressin V1a receptor. As to the kind of experiment: Functional assay on human vasopressin V1a receptor expressing cell line (intracellular Ca2+ fluorescence). Conditions: 1321N1 cells, (Arg8)-vasopressin at EC80; read-out: IC50 (nM) on hV1a cell line. It counts as cell-based.
Series [5] has as its system Prenatally valproate-treated rats. In words: Prenatal valproate model of ASD, social approach avoidance paradigm. The series is classed as in vivo, rat. Conditions: VPA rats; for social approach avoidance active contact time: mean ± S.E.M.; for social approach avoidance % effect: VEH/VEH = 100%, VPA/VEH = 0%. The protocol: as §1, §2
In series [6] the target is T2, V1aR (Homo sapiens, UniProt P37288). Conditions: cited from earlier work.
Target sequence in this assay (P37288 whole entry, species assumed): as the sequence (P37288 whole entry) above
The target of series [7] is T2, V1aR. Conditions: humans, Phase 1; cited from earlier work.
Target sequence in this assay (P37288 whole entry): as above
The target in a further series is human V1a receptor (Homo sapiens, UniProt P37288). Conditions: cited from earlier work.
Sequence of human V1a receptor (P37288 whole entry): as above
For series [8] the following is noted: rats; cited from earlier work.

What is called Ki is a dissociation constant, usually derived from enzyme kinetics or from competition with a known ligand. Usually IC50 stands for the point on the concentration scale where inhibition reaches its midpoint.

Sequence of mouse vasopressin V1a receptor (Q62463 whole entry): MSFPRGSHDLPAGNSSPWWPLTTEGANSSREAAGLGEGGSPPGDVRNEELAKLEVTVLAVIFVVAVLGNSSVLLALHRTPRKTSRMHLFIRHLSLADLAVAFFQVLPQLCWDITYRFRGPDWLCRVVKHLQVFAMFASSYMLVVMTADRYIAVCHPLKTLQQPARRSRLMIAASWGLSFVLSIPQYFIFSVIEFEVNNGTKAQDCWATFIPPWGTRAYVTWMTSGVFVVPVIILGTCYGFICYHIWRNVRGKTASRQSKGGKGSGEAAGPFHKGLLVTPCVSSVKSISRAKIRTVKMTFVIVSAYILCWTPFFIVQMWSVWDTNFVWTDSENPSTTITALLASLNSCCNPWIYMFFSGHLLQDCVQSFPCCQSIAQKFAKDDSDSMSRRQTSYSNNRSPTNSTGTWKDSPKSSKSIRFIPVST

For `CC(C)N[C@@H]1Cc2cc(Cl)ccc2-n2c(nnc2[C@H]2CC[C@H](Oc3ccccn3)CC2)C1` [Example 26], the Ki amounted to 0.7 nM in series [1] and 15 nM in series [3]. Further, the “social memory recognition active novelty contact time” value in series [2] (1.5 mg/kg i.p.) is 83.7 ± 11.8 s; in [2] (5 mg/kg i.p.), 133.5 ± 10.0 s; in series [2] (15 mg/kg i.p.) it was 141.9 ± 9.1 s. Besides, the “social memory recognition % effect” value in [2] (1.5 mg/kg i.p.) worked out at 66%; in series [2] (5 mg/kg i.p.), 115%; in series [2] (15 mg/kg i.p.) it was 124%. The IC50 in series [4] turned out to be 4.5 nM. In addition, the “social approach avoidance active contact time” value in [5] (1.5 mg/kg i.p.) came to 71.2 ± 15.9 s; in series [5] (5 mg/kg i.p.) it was 116.4 ± 22.5 s; in series [5] (15 mg/kg i.p.) it was 148.7 ± 8.3 s. Further, the “social approach avoidance % effect” value in series [5] (1.5 mg/kg i.p.) worked out at 30%; in [5] (5 mg/kg i.p.) it was 75%; in series [5] (15 mg/kg i.p.) it was 107%.
In the case of `CN1Cc2cc(Cl)ccc2-n2c(nnc2C2CCN(c3ccccn3)CC2)C1` [PF-184563], the V1aR antagonism result at V1aR [6] was “efficient V1aR antagonists”.
For `CN(C)CCn1cc(C(=O)N2CCC3(CC2)OCc2ccccc23)c2ccc(Cl)cc21` [RO5028442], the “orientation of eye-gaze pattern” value on V1aR [7] was “positive effect”.
Consider `O=C(CCCCCCC(=O)Nc1ccccc1)NO` [SAHA, suberoil anilide, reference compound], for which, in [2] (5 mg/kg i.p.), the “social memory recognition active novelty contact time” value worked out at 155.5 ± 5.8 s and the “social memory recognition % effect” value amounted to 137%. The “active time spent with seeking response towards new animal” value in series [2] (result in words) is “statistically significant increase”. Besides, in series [5] (5 mg/kg i.p.), the “social approach avoidance active contact time” value amounted to 156.0 ± 6.7 s and the “social approach avoidance % effect” value is given as 115%. Besides, the “time spent with social seeking response / social behaviour” value in series [5] (result in words) was “statistically significant increase”.
For the compound `CN(Cc1cccc(C(F)(F)F)c1)C(=O)[C@@H](CC(=O)N1CCC(N2CCCCC2)CC1)N1C(=O)[C@@H](N2C(=O)OC[C@@H]2c2ccccc2)[C@H]1/C=C/c1ccccc1` [SRX-251], the “activity on the human V1a receptor” value at human V1a receptor is listed as “active”. In series [8], the “brain level relative to effective concentrations detected in the binding assay” value is recorded as “approximately 100 fold”.
